From patent US20260293898A1 (priority 2023, published 2026)

Experiments:
Pythium ultimum = Pythium ultimum / liquid culture (seedling damping off); type: cell-based; settings: Globisporangium ultimum, read-out: control of Pythium ultimum
Plasmopara viticola = Plasmopara viticola / grape / leaf disc preventative; type: in vivo; settings: 200 ppm, grape vine leaf disks, inoculated 1 day after application, 6-8 days after application, compared to untreated control
Phytophthora infestans = type: in vivo; settings: 200 ppm; tomato leaf disks, preventative, inoculated 1 day after application; 5-7 days after application; compared to untreated control

| Compound | inhibition of growth at 20 ppm (Pythium ultimum) [%] | control of Plasmopara viticola (Plasmopara viticola) | control of Phytophthora infestans (Phytophthora infestans) |
| --- | --- | --- | --- |
| COC(=O)Nc1ccc(-c2cnc3ccc(C(=O)N(CC#N)c4ccc(Cl)c(OC)c4)cn23)cn1 [X.15, methyl N-[5-[6-[(4-chloro-3-methoxy-phenyl)-(cyanomethyl)carbamoyl]imidazo[1,2-a]pyridin-3-yl]-2-pyridyl]carbamate] | ≥ 80 | at least 80% | – |
| COC(=O)Nc1ccc(-c2cnc3ccc(C(=O)N(C)c4ccc(F)cc4)cn23)cc1 [X.07, methyl N-[4-[6-[(4-fluorophenyl)-methyl-carbamoyl]imidazo[1,2-a]pyridin-3-yl]phenyl]carbamate] | ≥ 80 | at least 80% | – |
| COC(=O)Nc1ccc(-c2cnc3c(C)cc(C(=O)N(C)c4ccnc(OC)c4)cn23)cn1 [X.22, methyl N-[5-[6-[(2-methoxy-4-pyridyl)-methyl-carbamoyl]-8-methyl-imidazo[1,2-a]pyridin-3-yl]-2-pyridyl]carbamate] | ≥ 80 | at least 80% | at least 80% |
| COCc1cc(C(=O)N(C)c2ccc(F)c(OC)c2)cn2c(-c3ccc(NC(=O)OC)nc3)cnc12 [X.21, methyl N-[5-[6-[(4-fluoro-3-methoxy-phenyl)-methyl-carbamoyl]-8-(methoxymethyl)imidazo[1,2-a]pyridin-3-yl]-2-pyridyl]carbamate] | ≥ 80 | at least 80% | at least 80% |
| COC(=O)Nc1ccc(-c2cnc3ccc(C(=O)N(C)c4ccc(Cl)c(OC)c4)cn23)cn1 [X.11, methyl N-[5-[6-[(4-chloro-3-methoxy-phenyl)-methyl-carbamoyl]imidazo[1,2-a]pyridin-3-yl]-2-pyridyl]carbamate] | ≥ 80 | at least 80% | – |
| COC(=O)Nc1ccc(-c2cnc3c(NC(C)=O)cc(C(=O)N(C)c4ccc(F)cc4)cn23)cn1 [X.18, methyl N-[5-[8-acetamido-6-[(4-fluorophenyl)-methyl-carbamoyl]imidazo[1,2-a]pyridin-3-yl]-2-pyridyl]carbamate] | ≥ 80 | at least 80% | – |
| CONC(=O)Nc1ccc(-c2cnc3ccc(C(=O)N(C)c4ccc(F)c(OC)c4)cn23)cn1 [X.17] | ≥ 80 | – | – |
| COCN(C(=O)c1ccc2ncc(-c3ccc(NC(=O)OC)nc3)n2c1)c1ccc(F)c(OC)c1 [X.04, methyl N-[5-[6-[(4-fluoro-3-methoxy-phenyl)-(methoxymethyl)carbamoyl]imidazo[1,2-a]pyridin-3-yl]-2-pyridyl]carbamate] | ≥ 80 | at least 80% | – |
| COC(=O)Nc1ccc(-c2cnc3ccc(C(=O)N(C)c4ccc(F)c(OC)c4)cn23)cn1 [X.01, methyl N-[5-[6-[(4-fluoro-3-methoxy-phenyl)-methyl-carbamoyl]imidazo[1,2-a]pyridin-3-yl]-2-pyridyl]carbamate] | ≥ 80 | at least 80% | – |
| COC(=O)Nc1ccc(-c2cnc3ccc(C(=O)N(C)c4ccc(F)c(OC)c4)cn23)cc1 [X.05, methyl N-[4-[6-[(4-fluoro-3-methoxy-phenyl)-methyl-carbamoyl]imidazo[1,2-a]pyridin-3-yl]phenyl]carbamate] | ≥ 80 | at least 80% | – |
| CCN(C(=O)c1ccc2ncc(-c3ccc(NC(=O)OC)nc3)n2c1)c1ccc(F)cc1 [X.19, methyl N-[5-[6-[ethyl-(4-fluorophenyl)carbamoyl]imidazo[1,2-a]pyridin-3-yl]-2-pyridyl]carbamate] | ≥ 80 | at least 80% | – |
| COC(=O)Nc1ccc(-c2cnc3ccc(C(=O)N(CS(C)(=O)=O)c4ccc(F)c(OC)c4)cn23)cn1 [X.16, methyl N-[5-[6-[(4-fluoro-3-methoxy-phenyl)-(methylsulfonylmethyl)carbamoyl]imidazo[1,2-a]pyridin-3-yl]-2-pyridyl]carbamate] | ≥ 80 | – | – |
| COC(=O)Nc1ccc(-c2cnc3cc(C)c(C(=O)N(C)c4ccc(F)cc4)cn23)cn1 [X.13, methyl N-[5-[6-[(4-fluorophenyl)-methyl-carbamoyl]-7-methyl-imidazo[1,2-a]pyridin-3-yl]-2-pyridyl]carbamate] | ≥ 80 | at least 80% | – |
| COCN(C(=O)c1cc(C)c2ncc(-c3ccc(NC(=O)OC)nc3)n2c1)c1ccc(F)c(OC)c1 [X.03, methyl N-[5-[6-[(4-fluoro-3-methoxy-phenyl)-(methoxymethyl)carbamoyl]-8-methyl-imidazo[1,2-a]pyridin-3-yl]-2-pyridyl]carbamate] | ≥ 80 | at least 80% | – |
| COC(=O)Nc1ccc(-c2cnc3c(C)cc(C(=O)N(C)c4ccc(F)cc4)cn23)cn1 [X.12, methyl N-[5-[6-[(4-fluorophenyl)-methyl-carbamoyl]-8-methyl-imidazo[1,2-a]pyridin-3-yl]-2-pyridyl]carbamate] | ≥ 80 | at least 80% | – |
| COC(=O)Nc1ccc(-c2cnc3c(NC(C)=O)cc(C(=O)N(C)c4ccc(F)c(OC)c4)cn23)cn1 [X.20, methyl N-[5-[8-acetamido-6-[(4-fluoro-3-methoxy-phenyl)-methyl-carbamoyl]imidazo[1,2-a]pyridin-3-yl]-2-pyridyl]carbamate] | ≥ 80 | at least 80% | – |
| COC(=O)Nc1ccc(-c2cnc3c(C)cc(C(=O)N(C)c4ccc(F)c(OC)c4)cn23)cn1 [X.02, methyl N-[5-[6-[(4-fluoro-3-methoxy-phenyl)-methyl-carbamoyl]-8-methyl-imidazo[1,2-a]pyridin-3-yl]-2-pyridyl]carbamate] | ≥ 80 | at least 80% | – |
| COC(=O)Nc1ccc(-c2cnc3c(C)cc(C(=O)N(C)c4ccc(C#N)c(OC)c4)cn23)cn1 [X.23, methyl N-[5-[6-[(4-cyano-3-methoxy-phenyl)-methyl-carbamoyl]-8-methyl-imidazo[1,2-a]pyridin-3-yl]-2-pyridyl]carbamate] | ≥ 80 | at least 80% | at least 80% |
| COC(=O)Nc1ccc(-c2cnc3ccc(C(=O)N(C)c4ccc(F)c(C)c4)cn23)cn1 [X.09, methyl N-[5-[6-[(4-fluoro-3-methyl-phenyl)-methyl-carbamoyl]imidazo[1,2-a]pyridin-3-yl]-2-pyridyl]carbamate] | ≥ 80 | at least 80% | – |
| COC(=O)Nc1ccc(-c2cnc3c(C)cc(C(=O)N(C)c4ccc(Cl)cc4)cn23)cc1 [X.08, methyl N-[4-[6-[(4-chlorophenyl)-methyl-carbamoyl]-8-methyl-imidazo[1,2-a]pyridin-3-yl]phenyl]carbamate] | ≥ 80 | at least 80% | – |
| COC(=O)Nc1ccc(-c2cnc3ccc(C(=O)N(CC#N)c4ccc(F)c(OC)c4)cn23)cn1 [X.14, methyl N-[5-[6-[cyanomethyl-(4-fluoro-3-methoxy-phenyl)carbamoyl]imidazo[1,2-a]pyridin-3-yl]-2-pyridyl]carbamate] | ≥ 80 | at least 80% | – |
| COC(=O)Nc1ccc(-c2cnc3ccc(C(=O)N(C)c4ccc(C#N)c(OC)c4)cn23)cn1 [X.10, methyl N-[5-[6-[(4-cyano-3-methoxy-phenyl)-methyl-carbamoyl]imidazo[1,2-a]pyridin-3-yl]-2-pyridyl]carbamate] | ≥ 80 | at least 80% | – |
| COc1cc(N(C)C(=O)c2ccc3ncc(-c4ccc(NC(=O)C5CC5)nc4)n3c2)ccc1F [X.06, 3-[6-(cyclopropanecarbonylamino)-3-pyridyl]-N-(4-fluoro-3-methoxy-phenyl)-N-methyl-imidazo[1,2-a]pyridine-6-carboxamide] | ≥ 80 | at least 80% | at least 80% |
